Measurements: patent US12029732B2, “Treatment of vascular and lymphatic disease” (priority 2019, dated 2024)
“Also recorded” adds a separate entry of the source.

How the values were obtained:
[1] = test system: RP27M4 (Rpl27a^low/+:Mdm4^+/−) mice; experiment: PFT / c-PFT treatment of pregnant mice carrying RP27M4 embryos (high-p53 lymphedema model); format: in vivo, mouse; details: for cutaneous hemorrhaging / embryonic (in utero) lethality: RP27M4 mutants, mothers treated daily from E11.5 until delivery; for ratio of mutant pups at birth: RP27M4; for ratio of mutant pups at birth / edema: mothers treated daily from E11.5; for edema: RP27M4 pups
Protocol: (§1) All mice were maintained on a C57BL/6J background. For timed pregnancies, the first day of observed plug were recorded as day 0.5 post-coitum or embryonic day 0.5 (E0.5). Mice haploinsufficient for the ribosomal protein L27a (Rpl27^low/+) are crossed with Mdm2 or Mdm4 heterozygous mice (Mdm2^+/− or Mdm4^+/−) to generate WT, Rpl27^low/+, Mdm2^+/−, Rpl27^low/+:Mdm2^+/− (RP27M2), Mdm4^+/−, and Rpl27^low/+:Mdm4^+/− mice (RP27M4). To generate mice on a p53-deficient background, we crossed Rpl27^low/+ mice to Mdm2^−/−:p53^−/− or Mdm4^−/−:p53^−/− mice. We therefore obtained RP27M2:p53^+/− mice and RP27M4:p53^+/− mice (FIG. 8). Genotypes were determined by PCR analysis of extracted DNA from tails using published primer sets for Mdm2, Mdm4, and p53. The sex of embryos was determined by detection of Sry and Raspn genes by PCR. Animal care and euthanasia guidelines of the Colorado Institutional Animal Care and Use Committee were followed for all animal work.
(§2) A 10 mM stock of Pifithrin-α (PFT-α, Selleck Bio, cat. S2929) was diluted 1:10 in 1×PBS, protected from light and used instantly. Pregnant mice were injected intraperitoneally from E11.5 to E16.5 and subcutaneously from E17.5 until delivery at 2.2 mg/kg of weight. Animal were monitored daily post-treatment and weights were recorded after delivery.
(§3) Tissues were fixed in 4% neutral buffered paraformaldehyde, processed, and embedded in paraffin by the UCD Research Histology core. Sagittal sections (5 μm) were subjected to immunofluorescence staining (IF) as previously described and according to the manufacturer's recommendations. The primary antibodies used for IF were monoclonal mouse Prox-1 (1:50, P21936, Thermofisher Scientific, Massachusetts, USA), monoclonal rabbit Lyve-1 (1:100, ab14917, Abcam Inc., California, USA), polyclonal rabbit Ki-67 (1:1000, VP-K451, Vector Laboratories, California, USA) and mouse monoclonal p21 (1:100, sc-6246, Santa Cruz Biotechnology, California, USA) antibodies. We used anti-rabbit or anti-mouse Alexa Fluor 594 or Alexa Fluor 488 conjugated secondary antibodies (1:1000, Invitrogen, California, USA), captured the images on a Nikon Eclipse 90i, and quantified using the ImageJ software. Pediatric lymphatic edema was categorized using the ISSVA Classification of Vascular Anomalies and confirmed by PdPn (D2-40 antibody, Ventana or RnD Systems AF3670) staining. IHC for p53 on human tissues were performed using the D-07 antibody (Ventana) on automated strainers (Ventana Ultra) following the manufacturer's recommendations and Clinical Laboratory Improvement Amendments (CLIA) certified procedures. For the visualization of the three-dimensional lymphatic vasculature, murine skin were fixed in 4% Paraformaldehyde (PFA) for 2-4 hours at room temperature for whole mount staining. Tissues were then subjected to procedures as published. H&E was performed following Harris protocols for staining.
(§4) To confirm the contribution of p53 overexpression to lymphedema, a pharmacological approach was used by testing a known reversible p53 negative modulator, Pifithrin-α (PFT). For this, time mating of Rpl27^low/+ mice was set up with Mdm2^+/−, or Mdm4^+/−, mice. Females carrying both models were injected intraperitoneally (IP) daily from E11.5 to […] and their weight gain was recorded until delivery. […] 100% of PFT-RP27M4 mice died did shortly after birth. […] It was speculated that the extent of phenotypic rescue at the low PFT dose used may be determined by the severity of the presentation. Therefore, increasing the amount of PFT given to the RP27M4 carrying mothers may allow for RP27M4 pups to survive.

[2] = test system: RP27M2 (Rpl27a^low/+:Mdm2^+/−) mice; experiment: PFT / c-PFT treatment of pregnant mice carrying RP27M2 embryos (high-p53 lymphedema model); format: in vivo, mouse; details: for cutaneous hemorrhaging / embryonic (in utero) lethality: RP27M2 mutants, mothers treated daily from E11.5 until delivery; for ratio of mutant pups at birth: RP27M2; for ratio of mutant pups at birth / edema: mothers treated daily from E11.5; for edema: RP27M2 pups
Protocol: as §1, §2, §3, §4

[3] = DMSO; cited from earlier work

Compound: Br.Cc1ccc(-c2cn3c4c(sc3n2)CCCC4)cc1 [c-PFT, Cyclic pifithrin-α hydrobromide]
- cutaneous hemorrhaging [1]: eliminates visible skin hemorrhaging
- embryonic (in utero) lethality ([1]; hydrobromide): rescued; also recorded: rescues in utero lethality
- cutaneous hemorrhaging [2]: eliminates visible skin hemorrhaging
- embryonic (in utero) lethality ([2]; hydrobromide): rescued; also recorded: rescues in utero lethality

Compound: Br.Cc1ccc(C(=O)Cn2c3c(sc2=N)CCCC3)cc1 [PFT, 2-[2-Imino-4,5,6,7-tetrahydrobenzothiazol-3-yl]-1-p-tolylethanone hydrobromide]
- pups died shortly after birth ([1]; PFT-RP27M4 mice, 2.2 mg/kg to mothers): 100%
- subcutaneous edema, H&E staining of dorsal skin ([1]; RP27M4, P0 skin): no evident subcutaneous edema
- lymphatic vessel size, Lyve-1 staining of skin ([1]; RP27M4, postnatal day 0 (P0)): reverted to a normal size
- ratio of mutant pups at birth ([1]; hydrobromide): born following a Mendelian ratio; also recorded: born at a Mendelian ratio
- ratio of mutant pups at birth ([1]; listed as PFT-a, hydrobromide): born at Mendelian ratio
- cutaneous hemorrhaging ([1]; hydrobromide): reversed symptoms of edema and hemorrhaging; also recorded: eliminates visible skin hemorrhaging; also recorded: no signs of hemorrhaging
- embryonic (in utero) lethality ([1]; hydrobromide): rescued; also recorded: rescues in utero lethality
- cutaneous hemorrhaging ([1]; listed as PFT-a, hydrobromide): do not exhibit cutaneous hemorrhaging
- postnatal survival ([1]; RP27M4 pups after PFT treatment of mothers): did not survive past the first day
- edema ([1]; hydrobromide): reversed symptoms of edema and hemorrhaging; also recorded: considerably reduced
- edema ([1]; listed as PFT-a, hydrobromide): do not exhibit cutaneous hemorrhaging and severe edema
- appearance of treated pups compared with WT ([2]; PFT-RP27M2 mice): indistinguishable from WT
- pups survived until at least 10 days old ([2]; PFT-RP27M2 mice, 2.2 mg/kg to mothers): 100%
- subcutaneous edema, H&E staining of dorsal skin ([2]; RP27M2, P0 skin): no evident subcutaneous edema
- lymphatic vessel size, Lyve-1 staining of skin ([2]; RP27M2, postnatal day 0 (P0)): reverted to a normal size
- ratio of mutant pups at birth ([2]; hydrobromide): born following a Mendelian ratio; also recorded: born at a Mendelian ratio
- ratio of mutant pups at birth ([2]; listed as PFT-a, hydrobromide): born at Mendelian ratio
- cutaneous hemorrhaging ([2]; hydrobromide): reversed symptoms of edema and hemorrhaging; also recorded: eliminates visible skin hemorrhaging; also recorded: no signs of hemorrhaging
- embryonic (in utero) lethality ([2]; hydrobromide): rescued; also recorded: rescues in utero lethality
- cutaneous hemorrhaging ([2]; listed as PFT-a, hydrobromide): do not exhibit cutaneous hemorrhaging
- edema ([2]; hydrobromide): reversed symptoms of edema and hemorrhaging
- edema ([2]; listed as PFT-a, hydrobromide): do not exhibit cutaneous hemorrhaging and severe edema
- solubility [3]: soluble
